Article PMC8434109, “Synthesis and Biological Activity of a Cytostatic Inhibitor of MLLr Leukemia Targeting the DOT1L Protein” (Molecules, 2021)

How the values were obtained:
DNMT3A = DNMT3A (Homo sapiens, UniProt Q9Y6K1); test: hDNMT3Acat activity assay; format: biochemical; conditions: substrate DNA, read-out: Enzyme % Activity (relative to DMSO controls)
Procedure: (§1) Table S1: Selectivity of the compound on a HMT panel (by Reaction Biology, USA) and on hDNMT3Acat (as described in Ceccaldi
(§2) Enzyme % Activity (relative to DMSO
(§3) Testing Concentration 10µM
(§4) Methyltransferase: Substrate: Activity enzyme in %

Microsomal stability = format: in vitro ADME
[1] = test system: HOXA9 and MEIS1 expression in MV4-11, MOLM13 and KOPN8 cells; test: Quantitative real-time PCR of MLL target genes; format: cell-based, human; conditions: 0.1, 0.32, 1 and 3.2 µM; 6 days MV4-11 and MOLM13, 10 days KOPN8
Procedure: We then investigated the impact of the inhibition of H3K79me2 in MLLr cells on the expression of the pro-leukemic genes, HOXA9 and MEIS1. These are MLL target genes and have been characterized for being activated by the aberrant H3K79 methylation by DOT1L recruited at these genes by the MLL-fusion proteins and inhibited by DOTL1 inhibitors. […] The difference in kinetics is related to the doubling time of the cells (Table 1), indeed, we measured that the doubling time of MV4-11 is 12 h while the doubling time for MOLM-13 is 22 h.
The non-adherent cell lines MV4-11, MOLM-13, and KOPN8 exponentially growing cells were plated in 12-well plates (1 plate for each experiment) at a rate of 500,000 cells per well at a final volume of 2 mL. The cells were incubated in the presence of increasing inhibitor concentrations (0.1, 0.32, 1, 3.2, 10 µM). […]
Total RNA was isolated from the cell pellet of at least 1 × 10^6 cells using the RNAeasy mini kit (Cat No.: 74106, Qiagen) according to the manufacturer’s instructions. […] Complementary DNA (cDNA) was diluted at 1:10 and used as a template in quantitative real-time PCR (RT-qPCR) using the SYBR Green Master Kit (ref. 047516001, Roche, Boulogne-Billancourt, France) and LightCycler®480 (Roche, Boulogne-Billancourt, France) System according to the manufacturer’s instructions. […]

[2] = test system: histone marks H2R2me2S, H3K4me3, H3K9me2, H4K20me2, H4K20me3, H3K9me1, H3K36me1; test: Selectivity on histone marks by fluorescence microscopy HCS; format: cell-based; conditions: 7 tested histone marks other than H3K79me2
Procedure: This difference in the mechanism was further confirmed by flow cytometry analysis of the impact of the compounds on the cell cycle and apoptosis.
as §1, §2, §3, §4
EZH2 Complex Core Histone 86±1
Figure S4. Selectivity evaluation of the compound Dia-2 by fluorescence microscopy HCS. A) fluorescence imaging of the
H3K79me2 mark B) bar diagram of the percentage of inhibition for compound Dia-2.
(1 picture or pasted object on this page, not shown here)

Sequence of DNMT3A (Q9Y6K1 634-912 limits assumed): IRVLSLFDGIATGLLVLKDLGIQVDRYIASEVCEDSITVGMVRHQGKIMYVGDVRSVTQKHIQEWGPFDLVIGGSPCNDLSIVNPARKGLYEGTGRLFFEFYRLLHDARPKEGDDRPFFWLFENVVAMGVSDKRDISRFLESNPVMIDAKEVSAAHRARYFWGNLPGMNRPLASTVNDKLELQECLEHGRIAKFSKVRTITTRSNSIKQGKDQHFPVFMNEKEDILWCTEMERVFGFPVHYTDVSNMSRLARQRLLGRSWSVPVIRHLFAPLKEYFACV

- remaining activity at 10 µM (DNMT3A): 96 ± 2%
- half-life increase (Microsomal stability; mouse liver microsomes, versus EPZ-4777 and EPZ-5676): 2 fold
- microsomal CLint (Microsomal stability; mouse liver microsomes, read-out: intrinsic clearance): 121 µL/min/mg
- half-life (Microsomal stability; mouse, liver microsomes): 11.5 min
Compound: CC(C)[C@H](CCCNC(=O)Nc1ccc(C(C)(C)C)cc1)N[C@H]1C[C@@H](n2cnc3c(N)ncnc32)[C@H](O)[C@@H]1O [Dia2, 1-((S)-4-(((1S,2R,3S,4R)-4-(6-amino-9H-purin-9-yl)-2,3-dihydroxycyclopentyl)amino)-5-methylhexyl)-3-(4-(tert-butyl)phenyl)urea]
- MEIS1 and HOXA9 expression [1]: decrease in a dose-dependent manner
- effect on other histone marks in cells [2]: does not affect the other 7 tested histone marks
